The results in this text go back to ChEMBL document CHEMBL2384972, “Tricyclic Pyrimidines As Inhibitors of DYRK1A/DYRK1B As Potential Treatment for Down's Syndrome or Alzheimer's Disease” (ACS Med Chem Lett, 2013).

For assay [1], the target named is Dual specificity tyrosine-phosphorylation-regulated kinase 1B (Homo sapiens, UniProt Q9Y463). Kind of assay: Inhibition of recombinant DYRK1B (unknown origin) after 120 mins in presence of [33P]-ATP.
The target of assay [2] is Dual specificity tyrosine-phosphorylation-regulated kinase 1A (Homo sapiens, UniProt Q13627). Put plainly: Inhibition of recombinant DYRK1A (unknown origin) after 120 mins in presence of [33P]-ATP.

Dual specificity tyrosine-phosphorylation-regulated kinase 1B, sequence (Q9Y463 whole entry): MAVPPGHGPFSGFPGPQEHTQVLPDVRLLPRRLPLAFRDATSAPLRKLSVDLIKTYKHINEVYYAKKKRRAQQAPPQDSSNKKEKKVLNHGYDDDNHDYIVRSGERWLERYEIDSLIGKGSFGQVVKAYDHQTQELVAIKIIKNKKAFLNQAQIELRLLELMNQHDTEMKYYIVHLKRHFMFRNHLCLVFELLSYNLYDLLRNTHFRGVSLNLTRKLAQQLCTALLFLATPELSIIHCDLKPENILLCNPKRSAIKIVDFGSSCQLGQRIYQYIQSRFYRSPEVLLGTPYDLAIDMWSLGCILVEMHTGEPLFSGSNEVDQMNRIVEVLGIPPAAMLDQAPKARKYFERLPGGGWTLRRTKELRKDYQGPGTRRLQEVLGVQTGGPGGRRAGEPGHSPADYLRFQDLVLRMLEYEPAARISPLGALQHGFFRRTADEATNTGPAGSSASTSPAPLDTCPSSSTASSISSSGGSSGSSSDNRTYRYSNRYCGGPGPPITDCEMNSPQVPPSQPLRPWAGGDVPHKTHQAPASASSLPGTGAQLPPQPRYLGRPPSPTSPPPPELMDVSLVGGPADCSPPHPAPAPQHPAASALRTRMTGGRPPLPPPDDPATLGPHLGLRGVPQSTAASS

Regarding `COC(=N)c1nc2ccc3ncnc(Nc4ccc(Br)cc4F)c3c2s1`, the figures for the IC50 in assay [1] and in assay [2] were 0.24 nM and 0.16 nM, respectively.

With `COC(=N)c1nc2ccc3ncnc(Nc4ccc(F)cc4Br)c3c2s1`, the results for the IC50 in assay [1] and in assay [2] were 6.55 nM and 3.6 nM, respectively.
